From the NIST ThermoML archive (doi:10.1016/j.jct.2019.02.011)
Numbers after ± are expanded uncertainties.

Assay: xn = mol fraction of the nth substance listed
Settings: Liquid, Vibrating tube method

COC(=O)OC [dimethyl carbonate] + CO
mass density [kg/m3]
Settings	100 kPa	5000 kPa	10000 kPa	15000 kPa	20000 kPa	25000 kPa	30000 kPa	35000 kPa	40000 kPa
298.15 K, x1 = 0.0253	–	–	–	–	–	822.44 ± 1.4	826.09 ± 1.4	829.61 ± 1.4	832.77 ± 1.4
298.15 K, x1 = 0.0503	–	–	–	–	–	836.02 ± 1.4	839.68 ± 1.4	843.21 ± 1.4	846.39 ± 1.4
298.15 K, x1 = 0.0745	–	–	–	–	–	848.53 ± 1.4	852.21 ± 1.4	855.74 ± 1.4	858.95 ± 1.4
298.15 K, x1 = 0.101	–	–	–	–	–	861.5 ± 1.4	865.23 ± 1.4	868.78 ± 1.4	872.01 ± 1.4
298.15 K, x1 = 0.1502	–	–	–	–	–	883.85 ± 1.4	887.6 ± 1.4	891.17 ± 1.4	894.43 ± 1.4
298.15 K, x1 = 0.2059	–	–	–	–	–	906.93 ± 1.4	910.69 ± 1.4	914.23 ± 1.4	917.53 ± 1.4
298.15 K, x1 = 0.25	–	–	–	–	–	923.6 ± 1.4	927.38 ± 1.4	930.92 ± 1.4	934.25 ± 1.4
298.15 K, x1 = 0.3004	–	–	–	–	–	941.13 ± 1.4	944.97 ± 1.5	948.53 ± 1.5	951.89 ± 1.5
298.15 K, x1 = 0.3426	–	–	–	–	–	954.69 ± 1.5	958.54 ± 1.5	962.11 ± 1.5	965.49 ± 1.5
298.15 K, x1 = 0.3984	–	–	–	–	–	971.23 ± 1.5	975.08 ± 1.5	978.67 ± 1.5	982.08 ± 1.5
298.15 K, x1 = 0.4514	–	–	–	–	–	985.66 ± 1.5	989.52 ± 1.5	993.12 ± 1.5	996.55 ± 1.5
298.15 K, x1 = 0.5054	–	–	–	–	–	999.17 ± 1.5	1003.04 ± 1.5	1006.64 ± 1.5	1010.1 ± 1.5
298.15 K, x1 = 0.5509	–	–	–	–	1005.74 ± 1.5	1009.72 ± 1.5	1013.59 ± 1.5	1017.21 ± 1.5	1020.68 ± 1.5
298.15 K, x1 = 0.6002	–	–	–	–	1016.28 ± 1.5	1020.27 ± 1.5	1024.16 ± 1.5	1027.78 ± 1.5	1031.27 ± 1.5
298.15 K, x1 = 0.6469	–	–	–	–	1025.6 ± 1.5	1029.6 ± 1.5	1033.49 ± 1.5	1037.12 ± 1.5	1040.63 ± 1.5
298.15 K, x1 = 0.6993	–	–	–	–	1035.37 ± 1.5	1039.38 ± 1.5	1043.27 ± 1.5	1046.86 ± 1.5	1050.38 ± 1.5
298.15 K, x1 = 0.7496	–	–	–	–	1044.11 ± 1.5	1048.12 ± 1.5	1052.02 ± 1.5	1055.62 ± 1.5	1059.15 ± 1.6
298.15 K, x1 = 0.799	–	–	–	–	1052.15 ± 1.5	1056.12 ± 1.5	1060.03 ± 1.6	1063.63 ± 1.6	1067.18 ± 1.6
298.15 K, x1 = 0.837	–	–	–	–	1058.02 ± 1.5	1061.99 ± 1.6	1065.9 ± 1.6	1069.51 ± 1.6	1073.07 ± 1.6
298.15 K, x1 = 0.9093	–	–	–	–	1068.61 ± 1.6	1072.59 ± 1.6	1076.46 ± 1.6	1080.07 ± 1.6	1083.65 ± 1.6
298.15 K, x1 = 0.9239	–	–	–	–	1070.65 ± 1.6	1074.63 ± 1.6	1078.5 ± 1.6	1082.11 ± 1.6	1085.7 ± 1.6
298.15 K, x1 = 0.9575	–	–	–	–	1075.22 ± 1.6	1079.21 ± 1.6	1083.09 ± 1.6	1086.7 ± 1.6	1090.29 ± 1.6
298.15 K, x1 = 0.9861	–	–	–	–	1079.06 ± 1.6	1083.05 ± 1.6	1086.92 ± 1.6	1090.54 ± 1.6	1094.14 ± 1.6
298.15 K, x1 = 1	–	–	–	–	1080.9 ± 0.6	1084.89 ± 0.61	1088.82 ± 0.62	1092.44 ± 0.64	1096.04 ± 0.65
303.15 K, x1 = 0.0253	796.3 ± 1.4	801.03 ± 1.4	805.57 ± 1.4	810.1 ± 1.4	814.43 ± 1.4	818.36 ± 1.4	822.05 ± 1.4	–	–
303.15 K, x1 = 0.0503	809.73 ± 1.4	814.5 ± 1.4	819.05 ± 1.4	823.59 ± 1.4	827.93 ± 1.4	831.86 ± 1.4	835.56 ± 1.4	–	–
303.15 K, x1 = 0.0745	822.09 ± 1.4	826.87 ± 1.4	831.44 ± 1.4	835.97 ± 1.4	840.32 ± 1.4	844.26 ± 1.4	848.02 ± 1.4	–	–
303.15 K, x1 = 0.101	834.96 ± 1.4	839.75 ± 1.4	844.32 ± 1.4	848.86 ± 1.4	853.22 ± 1.4	857.21 ± 1.4	860.97 ± 1.4	–	–
303.15 K, x1 = 0.1502	857.02 ± 1.4	861.81 ± 1.4	866.4 ± 1.4	870.99 ± 1.4	875.37 ± 1.4	879.38 ± 1.4	883.14 ± 1.4	–	–
303.15 K, x1 = 0.2059	879.85 ± 1.4	884.65 ± 1.4	889.26 ± 1.4	893.85 ± 1.4	898.26 ± 1.4	902.32 ± 1.4	906.14 ± 1.4	–	–
303.15 K, x1 = 0.25	896.36 ± 1.4	901.21 ± 1.4	905.83 ± 1.4	910.43 ± 1.4	914.79 ± 1.4	918.87 ± 1.4	922.69 ± 1.4	–	–
303.15 K, x1 = 0.3004	913.71 ± 1.4	918.57 ± 1.4	923.21 ± 1.4	927.81 ± 1.4	932.19 ± 1.4	936.27 ± 1.4	940.09 ± 1.4	–	–
303.15 K, x1 = 0.3426	927.12 ± 1.4	931.98 ± 1.4	936.63 ± 1.4	941.23 ± 1.4	945.62 ± 1.5	949.71 ± 1.5	953.54 ± 1.5	–	–
303.15 K, x1 = 0.3984	943.53 ± 1.4	948.4 ± 1.5	953.06 ± 1.5	957.62 ± 1.5	962.02 ± 1.5	966.12 ± 1.5	969.95 ± 1.5	–	–
303.15 K, x1 = 0.4514	957.9 ± 1.5	962.78 ± 1.5	967.4 ± 1.5	971.96 ± 1.5	976.32 ± 1.5	980.43 ± 1.5	984.26 ± 1.5	–	–
303.15 K, x1 = 0.5054	971.35 ± 1.5	976.23 ± 1.5	980.81 ± 1.5	985.37 ± 1.5	989.75 ± 1.5	993.91 ± 1.5	997.75 ± 1.5	–	–
303.15 K, x1 = 0.5509	981.85 ± 1.5	986.74 ± 1.5	991.33 ± 1.5	995.89 ± 1.5	1000.23 ± 1.5	1004.39 ± 1.5	1008.28 ± 1.5	–	–
303.15 K, x1 = 0.6002	992.37 ± 1.5	997.25 ± 1.5	1001.85 ± 1.5	1006.41 ± 1.5	1010.76 ± 1.5	1014.93 ± 1.5	1018.82 ± 1.5	–	–
303.15 K, x1 = 0.6469	1001.6 ± 1.5	1006.49 ± 1.5	1011.1 ± 1.5	1015.61 ± 1.5	1019.97 ± 1.5	1024.14 ± 1.5	1028.04 ± 1.5	–	–
303.15 K, x1 = 0.6993	1011.29 ± 1.5	1016.13 ± 1.5	1020.75 ± 1.5	1025.26 ± 1.5	1029.62 ± 1.5	1033.8 ± 1.5	1037.7 ± 1.5	–	–
303.15 K, x1 = 0.7496	1019.99 ± 1.5	1024.84 ± 1.5	1029.41 ± 1.5	1033.93 ± 1.5	1038.25 ± 1.5	1042.43 ± 1.5	1046.33 ± 1.5	–	–
303.15 K, x1 = 0.799	1028.01 ± 1.5	1032.86 ± 1.5	1037.44 ± 1.5	1041.96 ± 1.5	1046.28 ± 1.5	1050.47 ± 1.5	1054.37 ± 1.5	–	–
303.15 K, x1 = 0.837	1033.85 ± 1.5	1038.71 ± 1.5	1043.24 ± 1.5	1047.76 ± 1.5	1052.09 ± 1.5	1056.23 ± 1.5	–	–	–
303.15 K, x1 = 0.9093	1044.36 ± 1.5	1049.21 ± 1.5	1053.76 ± 1.5	1058.22 ± 1.6	1062.51 ± 1.6	1066.71 ± 1.6	–	–	–
303.15 K, x1 = 0.9239	1046.39 ± 1.5	1051.25 ± 1.5	1055.79 ± 1.5	1060.26 ± 1.6	1064.55 ± 1.6	1068.75 ± 1.6	–	–	–
303.15 K, x1 = 0.9575	1050.95 ± 1.5	1055.81 ± 1.5	1060.36 ± 1.6	1064.83 ± 1.6	1069.12 ± 1.6	1073.32 ± 1.6	–	–	–
303.15 K, x1 = 0.9861	1054.77 ± 1.5	1059.63 ± 1.6	1064.18 ± 1.6	1068.65 ± 1.6	1072.95 ± 1.6	1077.15 ± 1.6	–	–	–
303.15 K, x1 = 1	1056.61 ± 0.56	1061.47 ± 0.57	1066.02 ± 0.57	1070.49 ± 0.58	1074.79 ± 0.59	1078.99 ± 0.6	–	–	–
